We go through 10 compounds from ChEMBL document CHEMBL1201862, “PubChem BioAssay data set” (2004).

Some test systems named below: HCT-116; SK-MEL-28; SK-OV-3; RXF 393; MDA-MB-231; HCC 2998; KM12; EKVX; HL-60; SW-620; SR; HOP-92; UACC-62; T47D; SK-MEL-2; TK-10; NCI-H460; PC-3; NCI-H522; NCI-H23.
Holding throughout (assay): NCI anticancer screen, dose series, 48 h

SMILES strings stand for the structures.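 Where inhibition never reached the appropriate level, the endpoint shown equals the highest concentration tested. Otherwise, values were interpolated linearly from a five-concentration, 48-hour dose response in 96-well plates. GI50: concentration for 50% inhibition of growth.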 Active and inactive are the calls of the source. No stated cut-off is given here; in the data, active = GI50 up to about 1.1 µM and inactive = higher.

For `O=[N+]([O-])c1cccnc1-n1cnc2ccccc21`, the GI50 with HCT-116, in the experiment with SK-MEL-28, with SK-OV-3, with RXF 393, in the experiment with MDA-MB-231 and in the experiment on HCC 2998 was > 100 µM (inactive) each time. The GI50 is > 100 µM (inactive) in the experiment with KM12; > 100 µM (inactive) with EKVX; 48 µM (inactive) in the experiment with HL-60; > 100 µM (inactive) in the experiment on SW-620; > 100 µM (inactive) with SR; > 100 µM (inactive) in the experiment on HOP-92. Further, the GI50 in the experiment on UACC-62, in the experiment with T47D, in the experiment on SK-MEL-2, with TK-10, with NCI-H460 and with PC-3 was > 100 µM (inactive) throughout.
With `O=C(Cn1c(C(=O)c2ccccc2)nc2ccccc21)c1ccccc1`, the GI50 in the experiment with HCT-116, in the experiment with SK-MEL-28, with SK-OV-3, in the experiment with RXF 393, with MDA-MB-231 and in the experiment on HCC 2998 was > 100 µM (inactive) in each case. In addition, the GI50 in the experiment on NCI-H522 is > 58.3 µM (inactive); in the experiment with KM12 it was > 100 µM (inactive); in the experiment with EKVX it was > 100 µM (inactive); in the experiment with HL-60, 7.1 µM (inactive); in the experiment on SW-620, 4.85 µM (inactive); with SR, > 100 µM (inactive). Besides, the GI50 was 70.5 µM (inactive) in the experiment with HOP-92; > 56.6 µM (inactive) with UACC-62; > 100 µM (inactive) in the experiment with T47D; > 100 µM (inactive) in the experiment with SK-MEL-2; > 100 µM (inactive) in the experiment with TK-10; > 90.6 µM (inactive) with NCI-H460. For the same compound, the GI50 in the experiment on PC-3 was > 72.4 µM (inactive); in the experiment with NCI-H23 it was > 100 µM (inactive).
`CCN(CC)c1ccc2cc(-c3csc(-c4ccc(N(C)C)cc4)n3)c(=O)oc2c1`: the GI50 in the experiment with HCT-116, in the experiment on SK-MEL-28, with SK-OV-3, with RXF 393, in the experiment with MDA-MB-231 and in the experiment on HCC 2998 was > 100 µM (inactive) throughout. Further, the GI50 was > 100 µM (inactive) in the experiment with NCI-H522; 67.9 µM (inactive) in the experiment on KM12; > 100 µM (inactive) with EKVX; > 100 µM (inactive) in the experiment on HL-60; > 100 µM (inactive) in the experiment on SW-620; > 100 µM (inactive) in the experiment with SR. Further, the GI50 with HOP-92, with UACC-62, with T47D, in the experiment with SK-MEL-2, with TK-10 and in the experiment with NCI-H460 was > 100 µM (inactive) each time. Besides, the GI50 in the experiment on PC-3 was > 100 µM (inactive).
With `O=C(CC(=O)Nc1ccccc1)NNC(c1cc(/N=N/c2ccc(Br)cc2)ccc1O)P(O)O` (configuration not stated), the GI50 is 0.504 µM (active) in the experiment with HCT-116; 4.45 µM (inactive) in the experiment with SK-MEL-28; 5.48 µM (inactive) in the experiment with SK-OV-3; > 10 µM (inactive) with RXF 393; 2.73 µM (inactive) in the experiment on MDA-MB-231; 5.46 µM (inactive) in the experiment on HCC 2998. The GI50 in the experiment on NCI-H522 is 3.48 µM (inactive); in the experiment with KM12 it was 1.81 µM (inactive); with HL-60, 0.291 µM (active); in the experiment on SW-620 it was 1.55 µM (inactive); with SR, 0.494 µM (active); with HOP-92, 4.18 µM (inactive). Besides, the GI50 was 1.34 µM (inactive) with UACC-62; 3.31 µM (inactive) in the experiment with T47D; > 10 µM (inactive) with SK-MEL-2; 0.851 µM (active) in the experiment with TK-10; 0.447 µM (active) with NCI-H460; 0.975 µM (active) in the experiment on PC-3. Moreover, the GI50 in the experiment on NCI-H23 was 3.28 µM (inactive).
In the case of `CCN(CC)CC(=O)Nc1c(C(N)=O)nnn1Cc1cc(Cl)c(C(=O)c2ccc(Cl)cc2)c(Cl)c1`, the GI50 was 16.5 µM (inactive) in the experiment with HCT-116; 18.5 µM (inactive) in the experiment with SK-MEL-28; 21.6 µM (inactive) in the experiment with SK-OV-3; 10.4 µM (inactive) in the experiment with RXF 393; 16.9 µM (inactive) in the experiment on MDA-MB-231; 17.7 µM (inactive) in the experiment with HCC 2998. In addition, the GI50 in the experiment with NCI-H522 is 18.1 µM (inactive); in the experiment on KM12 it was 18.8 µM (inactive); in the experiment with EKVX, 27.2 µM (inactive); with HL-60 it was 15.5 µM (inactive); in the experiment on SW-620 it was 19.2 µM (inactive); with SR, 23.8 µM (inactive). Also, the GI50 in the experiment on HOP-92 was 20.7 µM (inactive); in the experiment on UACC-62, 17.6 µM (inactive); with T47D, 15.9 µM (inactive); in the experiment on SK-MEL-2, 14.9 µM (inactive); in the experiment with TK-10, 22.8 µM (inactive); in the experiment on PC-3 it was 16.8 µM (inactive). Also, in the experiment on NCI-H23, the GI50 was 14.6 µM (inactive).
Consider `CCCCCCCCCCCC(=O)NCc1ccc(OC(=O)CCCCCCCCCCC)c(OC)c1`, for which the GI50 in the experiment with HCT-116 is 65.2 µM (inactive); with SK-MEL-28, > 81.7 µM (inactive); in the experiment with SK-OV-3, > 100 µM (inactive); in the experiment with RXF 393 it was > 100 µM (inactive); in the experiment on MDA-MB-231 it was > 100 µM (inactive); with HCC 2998, > 64.6 µM (inactive). Also, the GI50 is 2.63 µM (inactive) with NCI-H522; 24.3 µM (inactive) in the experiment on KM12; > 100 µM (inactive) with EKVX; 6.07 µM (inactive) with HL-60; > 100 µM (inactive) in the experiment on SW-620; 11.1 µM (inactive) with SR. In addition, the GI50 in the experiment on HOP-92 was > 100 µM (inactive); in the experiment on UACC-62, > 96.4 µM (inactive); in the experiment on T47D it was 32.2 µM (inactive); in the experiment on SK-MEL-2 it was > 82.8 µM (inactive); in the experiment on TK-10 it was > 100 µM (inactive); in the experiment on NCI-H460 it was > 100 µM (inactive). Moreover, the GI50 in the experiment on PC-3 is 15.1 µM (inactive); in the experiment with NCI-H23, 32.8 µM (inactive).
For the compound `Cn1c(=O)oc2cc(Br)ccc21`, the GI50 in the experiment with HCT-116, with SK-MEL-28, in the experiment on SK-OV-3, in the experiment on RXF 393, with MDA-MB-231 and in the experiment on HCC 2998 was > 100 µM (inactive) in each case. In addition, the GI50 in the experiment with NCI-H522 is > 100 µM (inactive); in the experiment with KM12 it was > 100 µM (inactive); with EKVX it was 91.4 µM (inactive); with HL-60 it was > 100 µM (inactive); with SW-620 it was > 100 µM (inactive); in the experiment with SR, > 100 µM (inactive). Further, the GI50 in the experiment with UACC-62, with T47D, with SK-MEL-2, in the experiment on TK-10, with NCI-H460 and in the experiment with PC-3 was > 100 µM (inactive) each time. Also, in the experiment on NCI-H23, the GI50 was > 100 µM (inactive).
On to `O=C(Cc1ccc(Cl)c(Cl)c1)NCC1(N2CCCCC2)CCCCC1`, for which the GI50 is 40.6 µM (inactive) with HCT-116; > 100 µM (inactive) in the experiment with SK-OV-3; 21.6 µM (inactive) with RXF 393; 58.5 µM (inactive) with MDA-MB-231; 17 µM (inactive) in the experiment on HCC 2998; 38 µM (inactive) with NCI-H522. Also, the GI50 in the experiment on KM12 is 50.7 µM (inactive); in the experiment on EKVX it was 59.8 µM (inactive); in the experiment with HL-60, 41.4 µM (inactive); in the experiment on SW-620, 54.6 µM (inactive); in the experiment with SR, 35.5 µM (inactive); with HOP-92 it was 78.7 µM (inactive). Besides, the GI50 was 20.2 µM (inactive) with UACC-62; 21.1 µM (inactive) in the experiment on T47D; 46.1 µM (inactive) in the experiment on SK-MEL-2; 28.8 µM (inactive) with TK-10; 36.8 µM (inactive) in the experiment on NCI-H460; 40.1 µM (inactive) with PC-3. In addition, in the experiment on NCI-H23, the GI50 was 57.7 µM (inactive).
For `Cc1ccc(S(=O)(=O)CNC(=O)C(O)(O)C(F)(F)F)cc1`, the GI50 in the experiment with HCT-116, with SK-MEL-28, with SK-OV-3, with RXF 393, in the experiment with MDA-MB-231 and with HCC 2998 was > 100 µM (inactive) in each case. Further, the GI50 in the experiment on NCI-H522, in the experiment on KM12, in the experiment on EKVX, in the experiment on HL-60, with SW-620 and in the experiment with SR was > 100 µM (inactive) in each case. Also, the GI50 with HOP-92, in the experiment with UACC-62, with T47D, with SK-MEL-2, in the experiment with TK-10 and with NCI-H460 was > 100 µM (inactive) in each case. The GI50 in the experiment with PC-3 and with NCI-H23 was > 100 µM (inactive) each time.
Regarding `COc1ccc2oc(S(=O)(=O)N3CC(CCl)c4ccc([N+](=O)[O-])cc43)cc2c1` (configuration not stated), the GI50 in the experiment with HCT-116 was 0.0908 µM (active); with SK-OV-3, 0.105 µM (active); with RXF 393, 0.0345 µM (active); with MDA-MB-231, 0.29 µM (active); with HCC 2998, 0.256 µM (active); in the experiment with NCI-H522 it was 0.0292 µM (active). Also, the GI50 was 0.0465 µM (active) in the experiment with KM12; 0.173 µM (active) in the experiment with EKVX; 0.0579 µM (active) in the experiment on HL-60; 0.0841 µM (active) with SW-620; 0.0521 µM (active) in the experiment with SR; 0.533 µM (active) in the experiment with HOP-92. Also, the GI50 is 0.055 µM (active) in the experiment with UACC-62; 20.2 µM (inactive) with T47D; 0.12 µM (active) in the experiment on SK-MEL-2; 15.1 µM (inactive) in the experiment with TK-10; 0.102 µM (active) in the experiment with NCI-H460; 0.116 µM (active) in the experiment on PC-3. Further, the GI50 with NCI-H23 is 0.36 µM (active).
